Results published in paper PMC12921516 (ACS Bio & Med Chem Au, 2025).

Columns and labels:
HepG2 cells = assay: GC-MS untargeted metabolomic analysis; assay type: cell-based, human; details: HepG2, 30 μM for 24 h, vs DMSO
Protocol: HepG2 cells are commonly utilized in metabolomics to study alterations in metabolic pathways, such as glycolysis and lipid metabolism, when exposed to various substances, − due to their ability to sustain liver-specific functions. To explore the metabolic changes induced by the 4b and 5g derivatives in HepG2 cells, an untargeted metabolomic analysis using GC-MS was carried out. […] This vitamin is essential for synthesizing coenzyme A (CoA), which in turn produces acetyl-CoA and succinyl-CoA, all of which are crucial for ATP production in the tricarboxylic acid (TCA) cycle. […] On the other hand, our findings indicate that 5g leads to a reduction in intracellular citrate levels, which may promote glycolysis and diminish gluconeogenesis similarly to metformin. Consequently, this could potentially lower hepatic glucose output. In summary, the increased intracellular levels of pantothenic acid and glycine, combined with the lowered citrate levels achieved by 5g, may play a significant role in improving insulin resistance and T2DM.
5 GC-MS-based untargeted metabolomic analysis of HepG2. (a) Heatmap analysis of HepG2 cells treated with DMSO (D, vehicle), 4b, or 5g for 24 h. (b) Principal Component Analysis (PCA) of untargeted metabolomic analysis of HepG2 treated with DMSO (vehicle), 4b, and 5g at 30 μM for 24 h (c). Statistically significant metabolites altered between the groups. Graphs were constructed using sum-normalized peak height values. Asterisks indicate statistical significance according to the Dunn test, with p-values denoted as follows: *p < 0.05, **p < 0.01. Created in BioRender. Matuz Mares, D. (2025) https://BioRender.com/hpj5plg.
The treated HepG2 cells were washed twice with 1 mL of PBS, and the liquid was entirely removed by pipetting. Posteriorly, 1 mL of ice-cold methanol containing 2.5 μL of internal standard, consisting of tridecanoic acid (0.1 mg/mL), was added, and the mixture was bath sonicated for 2 min. All the extract was recovered in microcentrifuge tubes, thoroughly vortexed, and then centrifuged for 10 min at 15,000 rpm at 4 °C. The supernatant was recovered and dried overnight using a SpeedVac (SPD 121P, Thermo Scientific). 40 μL of 20 mg/mL […] was added under nitrogen flow and incubated for 90 min at 37 °C. Posteriorly, the tube was centrifuged, and the supernatant was fully recovered and transferred to an insert tube with 40 μL of MBSTFA 1% TMCS, vortexed and incubated for 30 min. One μL of this extract was injected into a GC/MS (Agilent 5977A/7890B, Santa Clara, CA, USA) system with HP5-MS (Agilent) column with helium 99.9999% purity under the following parameters: splitless, flow 1 mL/min, electron ionization, with a range of 50–500 m/z. The chromatography consisted of a 1 min hold at 60 °C, followed by a ramp of 10 °C/min to 325 °C, and a final hold time of 10 min. Raw data was transformed with Agilent Mass Hunter to mz data, and deconvolution and alignment were performed with Mzmine2.0. Univariate and multivariate analyses were performed with Metaboanalyst 6.0 and GraphPad.

hPTP1B1–285 = target: T1, hPTP1B1–285 (Homo sapiens, UniProt P18031); assay: PTP1B inhibition, pNPP hydrolysis, short form; assay type: biochemical; details: pNPP substrate; ± S.D
T1 construct: h PTP1B 1–285 IC 50 (μM ± S.D); made in house
T1 sequence (P18031 1-285): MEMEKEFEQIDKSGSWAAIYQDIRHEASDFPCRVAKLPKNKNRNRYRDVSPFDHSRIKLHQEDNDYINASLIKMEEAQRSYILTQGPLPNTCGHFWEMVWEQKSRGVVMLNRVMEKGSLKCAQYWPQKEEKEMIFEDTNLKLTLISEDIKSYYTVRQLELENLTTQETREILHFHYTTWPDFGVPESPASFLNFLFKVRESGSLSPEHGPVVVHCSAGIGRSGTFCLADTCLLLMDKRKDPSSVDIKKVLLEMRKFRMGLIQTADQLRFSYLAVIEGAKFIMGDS
Protocol: In contrast to analogous regions in other PTP family proteins, the intrinsically disordered C-terminal domain of PTP1B (residues 301–400) contains two α-helices, α8′ (residues 320–327) and α9′ (residues 360–377), which may act as binding sites for various compounds.
Aliquots of 0–10 μL of the test compounds (triplicate) were taken and incubated for 15 min at 37 °C with 85 μL of Tris buffer solution (50 mM, pH 6.8) containing PTP1B enzyme and 5 μL of p-nitrophenyl phosphate substrate (pNPP, 10 mM). The absorbance of the hydrolysis product, p-nitrophenol (pNP), was measured at 405 nm using a 96-microplate absorbance reader (Accuris SmartReader 96). The inhibitory activity was determined according to eq . %enzyme=(A405b/A405c)×100 1 Where: % enzyme is the percentage of inhibition for PTP1B or TCPTP
The IC50 was calculated using regression analysis, eq : %inhibition=A100/1+(I/IC50)^s 2 Where: A100: Maximum inhibition

| SMILES | glycine levels (HepG2 cells) | intracellular fructose levels (HepG2 cells) | intracellular glucose levels (HepG2 cells) | intracellular palmitic acid levels (HepG2 cells) | intracellular stearic acid levels (HepG2 cells) | pantothenic acid levels (HepG2 cells) | IC50 (hPTP1B1–285) | intracellular citrate levels (HepG2 cells) |
| --- | --- | --- | --- | --- | --- | --- | --- | --- |
| CC1(C)c2[nH]c3ccc(OC(F)F)cc3c2C[C@]2(C)[C@H]3C(=O)C=C4[C@@H]5C[C@@](C)(C(=O)O)CC[C@]5(C)CC[C@@]4(C)[C@]3(C)CC[C@@H]12 [compound 4b, (20β)-5′-(Difluoromethoxy)-11-oxo-1′H-oleana-2,12-dieno[3,2-b]indol-29-oic Acid] | not statistically significant | not statistically significant | not statistically significant | significantly reduce | significantly reduce | not statistically significant | 7.03 ± 0.28 µM |  |
| CC1(C)c2[nH]c3ccc(S(N)(=O)=O)cc3c2C[C@]2(C)[C@H]3C(=O)C=C4[C@@H]5C[C@@](C)(C(=O)O)CC[C@]5(C)CC[C@@]4(C)[C@]3(C)CC[C@@H]12 [compound 4g, (20β)-5′-Sulfamoyl-11-oxo-1′H-oleana-2,12-dieno[3,2-b]indol-29-oic Acid] |  |  |  |  |  |  | 9.11 ± 0.58 µM |  |
| CC1(C)c2c(cnn2-c2ccc(S(N)(=O)=O)cc2)C[C@]2(C)[C@H]3C(=O)C=C4[C@@H]5C[C@@](C)(C(=O)O)CC[C@]5(C)CC[C@@]4(C)[C@]3(C)CC[C@@H]12 [compound 5g, (20β)-11-Oxo-2′-(4-sulfamoylphenyl)-2′H-oleana-2,12-dieno[3,2-c]pyrazol-29-oic Acid] | markedly increasing | significantly lowers | significantly lowers |  |  | significant increase | 5.51 ± 0.16 µM | reduction |
